# From the NIST ThermoML archive (doi:10.1016/j.jct.2011.09.011)
# ± gives the expanded uncertainty stated by the source.
# Experiment: excess molar enthalpy (molar enthalpy of mixing); xn = mol fraction of the nth substance listed
# Conditions: 101 kPa, Liquid, Parr 1455 solution calorimeter
compound,measurement,setting,value
CCCCCCCCCO [nonan-1-ol] + CC#N,excess molar enthalpy,"298.15 K, x1 = 0.0899",0.254 ± 0.0108 kcal/mol
same,excess molar enthalpy,"298.15 K, x1 = 0.1141",0.303 ± 0.0127 kcal/mol
same,excess molar enthalpy,"298.15 K, x1 = 0.1501",0.365 ± 0.0151 kcal/mol
same,excess molar enthalpy,"298.15 K, x1 = 0.1975",0.433 ± 0.0179 kcal/mol
same,excess molar enthalpy,"298.15 K, x1 = 0.2673",0.515 ± 0.0213 kcal/mol
same,excess molar enthalpy,"298.15 K, x1 = 0.3318",0.573 ± 0.0237 kcal/mol
same,excess molar enthalpy,"298.15 K, x1 = 0.4217",0.626 ± 0.0263 kcal/mol
same,excess molar enthalpy,"298.15 K, x1 = 0.443",0.632 ± 0.0263 kcal/mol
same,excess molar enthalpy,"298.15 K, x1 = 0.4659",0.636 ± 0.0263 kcal/mol
same,excess molar enthalpy,"298.15 K, x1 = 0.4906",0.639 ± 0.0263 kcal/mol
same,excess molar enthalpy,"298.15 K, x1 = 0.5175",0.637 ± 0.0263 kcal/mol
same,excess molar enthalpy,"298.15 K, x1 = 0.5468",0.631 ± 0.0263 kcal/mol
same,excess molar enthalpy,"298.15 K, x1 = 0.5787",0.619 ± 0.0263 kcal/mol
same,excess molar enthalpy,"298.15 K, x1 = 0.6138",0.601 ± 0.0239 kcal/mol
same,excess molar enthalpy,"298.15 K, x1 = 0.6524",0.573 ± 0.0234 kcal/mol
same,excess molar enthalpy,"298.15 K, x1 = 0.695",0.534 ± 0.0217 kcal/mol
same,excess molar enthalpy,"298.15 K, x1 = 0.7425",0.482 ± 0.0196 kcal/mol
same,excess molar enthalpy,"298.15 K, x1 = 0.7955",0.414 ± 0.017 kcal/mol
same,excess molar enthalpy,"298.15 K, x1 = 0.8552",0.323 ± 0.0134 kcal/mol
same,excess molar enthalpy,"298.15 K, x1 = 0.9228",0.197 ± 0.00837 kcal/mol
same,excess molar enthalpy,"303.15 K, x1 = 0.0899",0.297 ± 0.0124 kcal/mol
same,excess molar enthalpy,"303.15 K, x1 = 0.1141",0.35 ± 0.0143 kcal/mol
same,excess molar enthalpy,"303.15 K, x1 = 0.1501",0.42 ± 0.0172 kcal/mol
same,excess molar enthalpy,"303.15 K, x1 = 0.1975",0.5 ± 0.0206 kcal/mol
same,excess molar enthalpy,"303.15 K, x1 = 0.2673",0.593 ± 0.0239 kcal/mol
same,excess molar enthalpy,"303.15 K, x1 = 0.3318",0.65 ± 0.0263 kcal/mol
same,excess molar enthalpy,"303.15 K, x1 = 0.4217",0.708 ± 0.0287 kcal/mol
same,excess molar enthalpy,"303.15 K, x1 = 0.443",0.71 ± 0.0287 kcal/mol
same,excess molar enthalpy,"303.15 K, x1 = 0.4659",0.709 ± 0.0287 kcal/mol
same,excess molar enthalpy,"303.15 K, x1 = 0.4906",0.706 ± 0.0287 kcal/mol
same,excess molar enthalpy,"303.15 K, x1 = 0.5175",0.701 ± 0.0287 kcal/mol
same,excess molar enthalpy,"303.15 K, x1 = 0.5468",0.69 ± 0.0287 kcal/mol
same,excess molar enthalpy,"303.15 K, x1 = 0.5787",0.672 ± 0.0263 kcal/mol
same,excess molar enthalpy,"303.15 K, x1 = 0.6138",0.647 ± 0.0263 kcal/mol
same,excess molar enthalpy,"303.15 K, x1 = 0.6524",0.616 ± 0.0239 kcal/mol
same,excess molar enthalpy,"303.15 K, x1 = 0.695",0.573 ± 0.0234 kcal/mol
same,excess molar enthalpy,"303.15 K, x1 = 0.7425",0.515 ± 0.021 kcal/mol
same,excess molar enthalpy,"303.15 K, x1 = 0.7955",0.436 ± 0.0179 kcal/mol
same,excess molar enthalpy,"303.15 K, x1 = 0.8552",0.341 ± 0.0141 kcal/mol
same,excess molar enthalpy,"303.15 K, x1 = 0.9228",0.21 ± 0.00884 kcal/mol
same,excess molar enthalpy,"308.15 K, x1 = 0.0899",0.307 ± 0.0127 kcal/mol
same,excess molar enthalpy,"308.15 K, x1 = 0.1141",0.364 ± 0.0151 kcal/mol
same,excess molar enthalpy,"308.15 K, x1 = 0.1501",0.441 ± 0.0182 kcal/mol
same,excess molar enthalpy,"308.15 K, x1 = 0.1975",0.525 ± 0.0215 kcal/mol
same,excess molar enthalpy,"308.15 K, x1 = 0.2673",0.627 ± 0.0263 kcal/mol
same,excess molar enthalpy,"308.15 K, x1 = 0.3318",0.689 ± 0.0287 kcal/mol
same,excess molar enthalpy,"308.15 K, x1 = 0.4217",0.745 ± 0.0311 kcal/mol
same,excess molar enthalpy,"308.15 K, x1 = 0.443",0.742 ± 0.0311 kcal/mol
same,excess molar enthalpy,"308.15 K, x1 = 0.4659",0.738 ± 0.0311 kcal/mol
same,excess molar enthalpy,"308.15 K, x1 = 0.4906",0.73 ± 0.0287 kcal/mol
same,excess molar enthalpy,"308.15 K, x1 = 0.5175",0.72 ± 0.0287 kcal/mol
same,excess molar enthalpy,"308.15 K, x1 = 0.5468",0.705 ± 0.0287 kcal/mol
same,excess molar enthalpy,"308.15 K, x1 = 0.5787",0.685 ± 0.0287 kcal/mol
same,excess molar enthalpy,"308.15 K, x1 = 0.6138",0.659 ± 0.0263 kcal/mol
same,excess molar enthalpy,"308.15 K, x1 = 0.6524",0.625 ± 0.0263 kcal/mol
same,excess molar enthalpy,"308.15 K, x1 = 0.695",0.583 ± 0.0237 kcal/mol
same,excess molar enthalpy,"308.15 K, x1 = 0.7425",0.529 ± 0.0215 kcal/mol
same,excess molar enthalpy,"308.15 K, x1 = 0.7955",0.455 ± 0.0186 kcal/mol
same,excess molar enthalpy,"308.15 K, x1 = 0.8552",0.355 ± 0.0146 kcal/mol
same,excess molar enthalpy,"308.15 K, x1 = 0.9228",0.216 ± 0.00908 kcal/mol
CCCCCCCCCCO [decan-1-ol] + CC#N,excess molar enthalpy,"298.15 K, x1 = 0.0436",0.171 ± 0.00789 kcal/mol
same,excess molar enthalpy,"298.15 K, x1 = 0.0542",0.206 ± 0.00908 kcal/mol
same,excess molar enthalpy,"298.15 K, x1 = 0.0678",0.248 ± 0.0105 kcal/mol
same,excess molar enthalpy,"298.15 K, x1 = 0.079",0.279 ± 0.0117 kcal/mol
same,excess molar enthalpy,"298.15 K, x1 = 0.0919",0.313 ± 0.0131 kcal/mol
same,excess molar enthalpy,"298.15 K, x1 = 0.1077",0.351 ± 0.0146 kcal/mol
same,excess molar enthalpy,"298.15 K, x1 = 0.127",0.393 ± 0.0163 kcal/mol
same,excess molar enthalpy,"298.15 K, x1 = 0.1509",0.44 ± 0.0179 kcal/mol
same,excess molar enthalpy,"298.15 K, x1 = 0.181",0.491 ± 0.0201 kcal/mol
same,excess molar enthalpy,"298.15 K, x1 = 0.2197",0.546 ± 0.0222 kcal/mol
same,excess molar enthalpy,"298.15 K, x1 = 0.271",0.607 ± 0.0239 kcal/mol
same,excess molar enthalpy,"298.15 K, x1 = 0.3415",0.671 ± 0.0263 kcal/mol
same,excess molar enthalpy,"298.15 K, x1 = 0.3857",0.699 ± 0.0287 kcal/mol
same,excess molar enthalpy,"298.15 K, x1 = 0.4394",0.72 ± 0.0287 kcal/mol
same,excess molar enthalpy,"298.15 K, x1 = 0.5058",0.724 ± 0.0287 kcal/mol
same,excess molar enthalpy,"298.15 K, x1 = 0.5895",0.694 ± 0.0287 kcal/mol
same,excess molar enthalpy,"298.15 K, x1 = 0.6985",0.596 ± 0.0239 kcal/mol
same,excess molar enthalpy,"298.15 K, x1 = 0.78",0.482 ± 0.0198 kcal/mol
same,excess molar enthalpy,"298.15 K, x1 = 0.8433",0.372 ± 0.0153 kcal/mol
same,excess molar enthalpy,"298.15 K, x1 = 0.9159",0.222 ± 0.00932 kcal/mol
same,excess molar enthalpy,"303.15 K, x1 = 0.0586",0.245 ± 0.0103 kcal/mol
same,excess molar enthalpy,"303.15 K, x1 = 0.0678",0.274 ± 0.0115 kcal/mol
same,excess molar enthalpy,"303.15 K, x1 = 0.079",0.306 ± 0.0129 kcal/mol
same,excess molar enthalpy,"303.15 K, x1 = 0.0919",0.342 ± 0.0141 kcal/mol
same,excess molar enthalpy,"303.15 K, x1 = 0.1077",0.38 ± 0.0155 kcal/mol
same,excess molar enthalpy,"303.15 K, x1 = 0.127",0.419 ± 0.0172 kcal/mol
same,excess molar enthalpy,"303.15 K, x1 = 0.1509",0.462 ± 0.0189 kcal/mol
same,excess molar enthalpy,"303.15 K, x1 = 0.181",0.506 ± 0.0206 kcal/mol
same,excess molar enthalpy,"303.15 K, x1 = 0.2197",0.559 ± 0.0227 kcal/mol
same,excess molar enthalpy,"303.15 K, x1 = 0.271",0.622 ± 0.0263 kcal/mol
same,excess molar enthalpy,"303.15 K, x1 = 0.3415",0.689 ± 0.0287 kcal/mol
same,excess molar enthalpy,"303.15 K, x1 = 0.3857",0.713 ± 0.0287 kcal/mol
same,excess molar enthalpy,"303.15 K, x1 = 0.4394",0.732 ± 0.0287 kcal/mol
same,excess molar enthalpy,"303.15 K, x1 = 0.5058",0.736 ± 0.0287 kcal/mol
same,excess molar enthalpy,"303.15 K, x1 = 0.5895",0.711 ± 0.0287 kcal/mol
same,excess molar enthalpy,"303.15 K, x1 = 0.6985",0.628 ± 0.0263 kcal/mol
same,excess molar enthalpy,"303.15 K, x1 = 0.78",0.512 ± 0.0208 kcal/mol
same,excess molar enthalpy,"303.15 K, x1 = 0.8433",0.396 ± 0.0163 kcal/mol
same,excess molar enthalpy,"303.15 K, x1 = 0.9159",0.243 ± 0.01 kcal/mol
same,excess molar enthalpy,"308.15 K, x1 = 0.0748",0.279 ± 0.0117 kcal/mol
same,excess molar enthalpy,"308.15 K, x1 = 0.1008",0.347 ± 0.0143 kcal/mol
same,excess molar enthalpy,"308.15 K, x1 = 0.1409",0.437 ± 0.0179 kcal/mol
same,excess molar enthalpy,"308.15 K, x1 = 0.1866",0.524 ± 0.0215 kcal/mol
same,excess molar enthalpy,"308.15 K, x1 = 0.2546",0.637 ± 0.0263 kcal/mol
same,excess molar enthalpy,"308.15 K, x1 = 0.3186",0.714 ± 0.0287 kcal/mol
same,excess molar enthalpy,"308.15 K, x1 = 0.4096",0.794 ± 0.0335 kcal/mol
same,excess molar enthalpy,"308.15 K, x1 = 0.4314",0.796 ± 0.0335 kcal/mol
same,excess molar enthalpy,"308.15 K, x1 = 0.455",0.794 ± 0.0335 kcal/mol
same,excess molar enthalpy,"308.15 K, x1 = 0.4807",0.788 ± 0.0311 kcal/mol
same,excess molar enthalpy,"308.15 K, x1 = 0.5088",0.78 ± 0.0311 kcal/mol
same,excess molar enthalpy,"308.15 K, x1 = 0.5395",0.767 ± 0.0311 kcal/mol
same,excess molar enthalpy,"308.15 K, x1 = 0.5734",0.75 ± 0.0311 kcal/mol
same,excess molar enthalpy,"308.15 K, x1 = 0.6109",0.724 ± 0.0287 kcal/mol
same,excess molar enthalpy,"308.15 K, x1 = 0.6525",0.686 ± 0.0287 kcal/mol
same,excess molar enthalpy,"308.15 K, x1 = 0.6991",0.636 ± 0.0263 kcal/mol
same,excess molar enthalpy,"308.15 K, x1 = 0.7515",0.567 ± 0.0232 kcal/mol
same,excess molar enthalpy,"308.15 K, x1 = 0.8108",0.471 ± 0.0194 kcal/mol
same,excess molar enthalpy,"308.15 K, x1 = 0.8785",0.336 ± 0.0139 kcal/mol
same,excess molar enthalpy,"308.15 K, x1 = 0.9566",0.142 ± 0.00621 kcal/mol
